“Also recorded” adds a separate entry of the source. Square brackets hold non-standard residues; d marks the D form. NαhTyr = N-alpha-homo tyrosine (backbone-modified residue); NαhAla = N-alpha-homo alanine (backbone-modified residue); NαhLeu = N-alpha-homo leucine (backbone-modified residue); NαhLys = N-alpha-homo lysine (backbone-modified residue)
What was measured:
[1] = tested on: T lymphocytes of BALB/c mice injected with the modified peptide 88-99 of the histone H4; assay: Mirror test: T lymphocytes of mice injected with the modified 88-99 H4 peptides, stimulated ex vivo with the analogue and the parent peptide 88-99; type: in vivo; conditions: for immunogenicity (induces responses against the homologous peptide): mice injected with the analogue subcutaneously with Freund's adjuvant; for cross reaction of the generated T cells with the parent peptide 88-99: mice injected with the analogue, ex vivo stimulation with parent peptide 88-99
Protocol: In addition, a mirror manipulation of the foregoing was performed, namely response tests on the T lymphocytes of mice injected with the modified peptides and stimulation ex vivo with the parent peptide (88-99). After injection of the analogues, analyses were performed on cell cultures with the said analogues and the parent peptide 88-99. The following results are observed:
In addition, a mirror experiment of the foregoing was performed, namely an experiment on mice injected with the peptide G and stimulation ex vivo with increasing quantities of the parent peptide (88-99).
FIG. 2: Response tests on the T lymphocytes of BALB/c mice injected with the modified peptide 88-99 A or with the modified peptide 88-99 D of the histone H4 subcutaneously with Freund's adjuvant. The stimulation index is shown on the y-axis and the different concentrations of peptide are shown on the x-axis.
FIG. 3: Response tests on the T lymphocytes of BALB/c mice injected with the modified peptide 88-99 E of the histone H4 subcutaneously with Freund's adjuvant. The stimulation index is shown on the y-axis and the different concentrations of peptide are shown on the x-axis.
FIG. 5: Response tests on the T lymphocytes of BALB/c mice injected with the modified peptide 88-99 G of the histone H4 subcutaneously with Freund's adjuvant. The stimulation index is shown on the y-axis and the different concentrations of peptide are shown on the x-axis.

[2] = tested on: T lymphocytes of BALB/c mice immunized with the parent peptide 88-99H4; assay: T lymphocyte proliferation (tritiated thymidine) of mice immunized with parent peptide 88-99H4, restimulated in culture with parent peptide or analogues; type: cell-based; conditions: mice immunized with parent 88-99H4; for activity compared with that of the parent peptide 88-99: T cell restimulation; for index of stimulation (IS): restimulation peptide 100 μM (printed "to 100 μM"), FIG. 4; for index of stimulation (IS) relative to the wells without peptide: restimulation peptide 90 μM (printed "to 90 μM"), FIG. 1
Protocol: BALB/c mice were immunized with the parent peptide 88-99H4 and in cell cultures the T lymphocytes of these mice were restimulated with the same peptide or with the analogues A-E. The cell proliferation was measured by the incorporation of tritiated thymidine and the index of stimulation (1S) relative to the wells without peptide was calculated. The tests are performed in triplicate and the experiment is performed several times in independent experiments.
The same experiments were performed with peptide G, (corresponding to the sequence SEQ ID NO: 7).
FIG. 1: Response tests on the T lymphocytes of BALB/c mice injected with the parent peptide 88-99 of the histone H4 subcutaneously with Freund's adjuvant, and stimulation ex-vivo with the parent peptide or the analogue E; the stimulation index is shown on the y-axis and the different concentrations of peptide are shown on the x-axis.
FIG. 4: Response tests on the T lymphocytes of BALB/c mice injected with the parent peptide 88-99 of the histone H4 subcutaneously with Freund's adjuvant, and stimulation ex-vivo with the parent peptide or the analogue G; the stimulation index is shown on the y-axis and the different concentrations of peptide are shown on the x-axis.

Substance | immunogenicity (induces responses against the homologous peptide) [1] | cross reaction of the generated T cells with the parent peptide 88-99 [1] | activity compared with that of the parent peptide 88-99 [2] | index of stimulation (IS) [2] | index of stimulation (IS) relative to the wells without peptide [2]
^88H2N-Tyr-Ala-Leu-Lys-Arg-Gln-Gly-Arg-Thr-Nα-hLeu-Nα-hTyr-Gly-OH^99 (H-YALKRQGRT[NαhLeu][NαhTyr]G-OH; also: Nα-homo leucine and tyrosine residues) [peptide G] | immunogenic | react by cross reaction with the homologous peptide G and in particular with the parent peptide with the same intensity | analogous | 16.6 | 
^88H2N-Tyr-Ala-Leu-Lys-Arg-Gln-Gly-Arg-Thr-Nα-hLeu-Tyr-Gly-OH^99 (H-YALKRQGRT[NαhLeu]YG-OH; also: Nα-homo leucine residue) [peptide E] | immunogenic | react by cross reaction with the parent peptide; also recorded: cross reacts perfectly | analogous, or even superior depending on the experiments |  | 7.7
H-Tyr-Ala-Leu-Lys-Arg-Gln-Gly-Arg-Thr-Leu-Tyr-Gly-OH (H-YALKRQGRTLYG-OH; listed as Homo sapiens) [parent peptide 88-99H4, reference compound] |  |  |  | 16.9 | 6.7
^88H2N-Tyr-Ala-Leu-Nα-hLys-Arg-Gln-Gly-Arg-Thr-Leu-Tyr-Gly-OH^99 (H-YAL[NαhLys]RQGRTLYG-OH; also: Nα-homo amino acid residue) [peptide D] | immunogenic | no cross reaction with the parent peptide |  |  | 
^88H2N-Tyr-Nα-hAla-Leu-Lys-Arg-Gln-Gly-Arg-Thr-Leu-Tyr-Gly-OH^99 (H-Y[NαhAla]LKRQGRTLYG-OH; also: Nα-homo amino acid residue) [peptide A] | immunogenic | no cross reaction with the parent peptide |  |  | 

Source: patent publication US9017673B2, “Peptide analogues comprising at least one type of aminoacylaza-$g(b)3and the use thereof, in particular for therapy” (Centre National de la Recherche Scientifique, priority 2003, dated 2015)
